{
  "source": "patent US20050197364A1",
  "about": "“Amide compounds as ion channel ligands and uses thereof” (priority 2003, published 2005)",
  "data": [
    {"test_system": "VR1 receptor", "assay": "High throughput calcium imaging assay (Fura2, Flex Station) of VR1 antagonists, pH 5.1 stimulus", "format": "cell-based", "conditions": "1 uM compound; inhibition of calcium ion influx induced by capsaicin stimulation", "values": [
      {"smiles": "CC(C)(C)c1ccc(NC(=O)c2ccc(-c3ncccc3Cl)cc2F)cc1", "note": "[Compound 86]", "% Inhibition @ 1 uM": "+ (compound exhibited 0-25% inhibition of calcium ion influx induced by capsaicin stimulation)"},
      {"smiles": "O=C(Nc1ccccc1)c1ccc(-c2ncccc2Cl)cn1", "note": "[Compound 289]", "% Inhibition @ 1 uM": "+ + + + (“+ + + +” compound exhibited 75% or greater inhibition of calcium ion influx induced by capsaicin stimulation.)"},
      {"smiles": "CC(C)(CO)NC(=O)c1ccc(-c2ncccc2Cl)cc1", "note": "[Compound 41]", "% Inhibition @ 1 uM": "+ (compound exhibited 0-25% inhibition of calcium ion influx induced by capsaicin stimulation)"},
      {"smiles": "O=C(O)c1cccc(NC(=O)c2ccc(-c3ncccc3Cl)c(F)c2)c1", "note": "[Compound 165]", "% Inhibition @ 1 uM": "+ (compound exhibited 0-25% inhibition of calcium ion influx induced by capsaicin stimulation)"},
      {"smiles": "COc1cc(C(=O)Nc2ccc(C)cc2C)ccc1-c1ncccc1Cl", "note": "[Compound 206]", "% Inhibition @ 1 uM": "+ + + + (“+ + + +” compound exhibited 75% or greater inhibition of calcium ion influx induced by capsaicin stimulation.)"},
      {"smiles": "COc1cc(C(=O)Nc2cccc(OC(C)C)c2)ccc1-c1ncccc1Cl", "note": "[Compound 253]", "% Inhibition @ 1 uM": "+ (“+” compound exhibited 0-25% inhibition of calcium ion influx induced by capsaicin stimulation.)"},
      {"smiles": "O=C(Nc1ccc2cn[nH]c2c1)c1ccc(-c2ncccc2Cl)c(F)c1", "note": "[Compound 172]", "% Inhibition @ 1 uM": "+ + + (compound exhibited 50-75% inhibition of calcium ion influx induced by capsaicin stimulation)"},
      {"smiles": "CC(C)(NC(=O)c1ccc(-c2ncccc2Cl)cc1F)c1ccccc1", "note": "[Compound 66]", "% Inhibition @ 1 uM": "+ (compound exhibited 0-25% inhibition of calcium ion influx induced by capsaicin stimulation)"},
      {"smiles": "O=C(Nc1ccc(Br)cn1)c1ccc(-c2ncccc2Cl)cc1", "note": "[Compound 49]", "% Inhibition @ 1 uM": "+ + (compound exhibited 25-50% inhibition of calcium ion influx induced by capsaicin stimulation)"},
      {"smiles": "O=C(Nc1ccc(N2CCNCC2)cc1)c1ccc(-c2ncccc2Cl)cc1", "note": "[Compound 45]", "% Inhibition @ 1 uM": "+ (compound exhibited 0-25% inhibition of calcium ion influx induced by capsaicin stimulation)"},
      {"smiles": "COc1ccc(NC(=O)c2ccc(-c3ncccc3Cl)cc2)cn1", "note": "[Compound 32]", "% Inhibition @ 1 uM": "+ (compound exhibited 0-25% inhibition of calcium ion influx induced by capsaicin stimulation)"},
      {"smiles": "Cc1ccnc(NC(=O)c2ccc(-c3ncccc3Cl)c(F)c2)c1", "note": "[Compound 145]", "% Inhibition @ 1 uM": "+ + + + (compound exhibited 75% or greater inhibition of calcium ion influx induced by capsaicin stimulation)"},
      {"smiles": "COc1ccc(NC(=O)c2ccc(-c3ncccc3Cl)cc2F)cc1Cl", "note": "[Compound 79]", "% Inhibition @ 1 uM": "+ + (compound exhibited 25-50% inhibition of calcium ion influx induced by capsaicin stimulation)"},
      {"smiles": "O=C(Nc1ccc(F)cc1[N+](=O)[O-])c1ccc(-c2ncccc2Cl)c(F)c1", "note": "[Compound 132]", "% Inhibition @ 1 uM": "+ + + + (compound exhibited 75% or greater inhibition of calcium ion influx induced by capsaicin stimulation)"},
      {"smiles": "COc1cc(C(=O)Nc2ccc(C(F)(F)F)cc2)ccc1-c1ncccc1Cl", "note": "[Compound 213]", "% Inhibition @ 1 uM": "+ + (“+ +” compound exhibited 25-50% inhibition of calcium ion influx induced by capsaicin stimulation.)"},
      {"smiles": "COc1cc(C(=O)Nc2cccc(Cl)c2)ccc1-c1ncccc1Cl", "note": "[Compound 193]", "% Inhibition @ 1 uM": "+ (compound exhibited 0-25% inhibition of calcium ion influx induced by capsaicin stimulation)"},
      {"smiles": "O=C(Nc1ccc(F)cc1)c1ccc(-c2ncccc2Cl)c(F)c1", "note": "[Compound 114]", "% Inhibition @ 1 uM": "+ (compound exhibited 0-25% inhibition of calcium ion influx induced by capsaicin stimulation)"},
      {"smiles": "O=C(Nc1cccc(OC(F)(F)F)c1)c1ccc(-c2ncccc2Cl)cn1", "note": "[Compound 344]", "% Inhibition @ 1 uM": "+ + (“+ +” compound exhibited 25-50% inhibition of calcium ion influx induced by capsaicin stimulation.)"},
      {"smiles": "CCC(C)(C)NC(=O)c1ccc(-c2ncccc2Cl)cc1", "note": "[Compound 53]", "% Inhibition @ 1 uM": "+ (compound exhibited 0-25% inhibition of calcium ion influx induced by capsaicin stimulation)"},
      {"smiles": "COc1cc(C(=O)Nc2ccc3ccccc3c2)ccc1-c1ncccc1Cl", "note": "[Compound 236]", "% Inhibition @ 1 uM": "+ + + + (“+ + + +” compound exhibited 75% or greater inhibition of calcium ion influx induced by capsaicin stimulation.)"},
      {"smiles": "O=C(Nc1ccncc1)c1ccc(-c2ncccc2Cl)cc1F", "note": "[Compound 62]", "% Inhibition @ 1 uM": "+ (compound exhibited 0-25% inhibition of calcium ion influx induced by capsaicin stimulation)"},
      {"smiles": "COc1cc(C(=O)Nc2ccc(OC)c(C(F)(F)F)c2)ccc1-c1ncccc1Cl", "note": "[Compound 258]", "% Inhibition @ 1 uM": "+ + (“+ +” compound exhibited 25-50% inhibition of calcium ion influx induced by capsaicin stimulation.)"},
      {"smiles": "O=C(Nc1cccc(Br)c1)c1ccc(-c2ncccc2Cl)cc1", "note": "[Compound 21]", "% Inhibition @ 1 uM": "+ (compound exhibited 0-25% inhibition of calcium ion influx induced by capsaicin stimulation)"},
      {"smiles": "O=C(Nc1cccnc1)c1ccc(-c2ncccc2Cl)cc1F", "note": "[Compound 63]", "% Inhibition @ 1 uM": "+ (compound exhibited 0-25% inhibition of calcium ion influx induced by capsaicin stimulation)"},
      {"smiles": "CCCOc1ccc(NC(=O)c2ccc(-c3ncccc3Cl)cc2)cc1", "note": "[Compound 274]", "% Inhibition @ 1 uM": "+ (“+” compound exhibited 0-25% inhibition of calcium ion influx induced by capsaicin stimulation.)"},
      {"smiles": "O=C(Nc1ccc(OC(F)(F)F)cc1)c1ccc(-c2ncccc2Cl)cc1", "note": "[Compound 276]", "% Inhibition @ 1 uM": "+ (“+” compound exhibited 0-25% inhibition of calcium ion influx induced by capsaicin stimulation.)"},
      {"smiles": "CCCc1ccccc1NC(=O)c1ccc(-c2ncccc2Cl)c(F)c1", "note": "[Compound 118]", "% Inhibition @ 1 uM": "+ (compound exhibited 0-25% inhibition of calcium ion influx induced by capsaicin stimulation)"},
      {"smiles": "Cc1cc(C)nc(NC(=O)c2ccc(-c3ncccc3Cl)c(F)c2)c1", "note": "[Compound 139]", "% Inhibition @ 1 uM": "+ (compound exhibited 0-25% inhibition of calcium ion influx induced by capsaicin stimulation)"},
      {"smiles": "O=C(Nc1ccncc1)c1ccc(-c2ncccc2Cl)cc1", "note": "[Compound 7]", "% Inhibition @ 1 uM": "+ + + + (compound exhibited 75% or greater inhibition of calcium ion influx induced by capsaicin stimulation)"},
      {"smiles": "O=C(Nc1ccc2ccccc2c1)c1ccc(-c2ncccc2Cl)cc1F", "note": "[Compound 109]", "% Inhibition @ 1 uM": "+ + (compound exhibited 25-50% inhibition of calcium ion influx induced by capsaicin stimulation)"},
      {"smiles": "O=C(Nc1ccc([N+](=O)[O-])cc1)c1ccc(-c2ncccc2Cl)cc1", "note": "[Compound 56]", "% Inhibition @ 1 uM": "+ + + + (compound exhibited 75% or greater inhibition of calcium ion influx induced by capsaicin stimulation)"},
      {"smiles": "COc1ccccc1NC(=O)c1ccc(-c2ncccc2Cl)cc1", "note": "[Compound 13]", "% Inhibition @ 1 uM": "+ + + + (compound exhibited 75% or greater inhibition of calcium ion influx induced by capsaicin stimulation)"},
      {"smiles": "O=C(Nc1ccc(OCc2ccccc2)cc1)c1ccc(-c2ncccc2Cl)cn1", "note": "[Compound 332]", "% Inhibition @ 1 uM": "+ (“+” compound exhibited 0-25% inhibition of calcium ion influx induced by capsaicin stimulation.)"},
      {"smiles": "COc1ccc(NC(=O)c2ccc(-c3ncccc3Cl)cn2)cc1O", "note": "[Compound 338]", "% Inhibition @ 1 uM": "+ + (“+ +” compound exhibited 25-50% inhibition of calcium ion influx induced by capsaicin stimulation.)"},
      {"smiles": "CC(C)(C)c1ccc(NC(=O)c2ccc(-c3ncccc3Cl)c(F)c2)cc1", "note": "[Compound 125]", "% Inhibition @ 1 uM": "+ + + + (compound exhibited 75% or greater inhibition of calcium ion influx induced by capsaicin stimulation)"},
      {"smiles": "O=C(Nc1cccc(OC(F)(F)F)c1)c1ccc(-c2ncccc2Cl)c(F)c1", "note": "[Compound 176]", "% Inhibition @ 1 uM": "+ (compound exhibited 0-25% inhibition of calcium ion influx induced by capsaicin stimulation)"},
      {"smiles": "CCOC(=O)c1cccc(NC(=O)c2ccc(-c3ncccc3Cl)cc2)c1", "note": "[Compound 269]", "% Inhibition @ 1 uM": "+ (“+” compound exhibited 0-25% inhibition of calcium ion influx induced by capsaicin stimulation.)"},
      {"smiles": "CCn1c2ccccc2c2cc(NC(=O)c3ccc(-c4ncccc4Cl)c(OC)c3)ccc21", "note": "[Compound 234]", "% Inhibition @ 1 uM": "+ (“+” compound exhibited 0-25% inhibition of calcium ion influx induced by capsaicin stimulation.)"},
      {"smiles": "O=C(Nc1ccccc1Cl)c1ccc(-c2ncccc2Cl)cc1", "note": "[Compound 15]", "% Inhibition @ 1 uM": "+ (compound exhibited 0-25% inhibition of calcium ion influx induced by capsaicin stimulation)"},
      {"smiles": "O=C(Nc1ccc(C2CCCCC2)cc1)c1ccc(-c2ncccc2Cl)cc1", "note": "[Compound 27]", "% Inhibition @ 1 uM": "+ + + + (compound exhibited 75% or greater inhibition of calcium ion influx induced by capsaicin stimulation)"},
      {"smiles": "O=C(Nc1cccc(Cl)c1)c1ccc(-c2ncccc2Cl)cc1", "note": "[Compound 12]", "% Inhibition @ 1 uM": "+ (compound exhibited 0-25% inhibition of calcium ion influx induced by capsaicin stimulation)"},
      {"smiles": "COc1cc(NC(=O)c2ccc(-c3ncccc3Cl)cc2)cc(C(F)(F)F)c1", "note": "[Compound 28]", "% Inhibition @ 1 uM": "+ + (compound exhibited 25-50% inhibition of calcium ion influx induced by capsaicin stimulation)"},
      {"smiles": "COc1cc(C(=O)Nc2ccc(Cl)c(C(F)(F)F)c2)ccc1-c1ncccc1Cl", "note": "[Compound 214]", "% Inhibition @ 1 uM": "+ (“+” compound exhibited 0-25% inhibition of calcium ion influx induced by capsaicin stimulation.)"},
      {"smiles": "O=C(Nc1ccc(C(F)(F)F)cc1)c1ccc(-c2ncccc2Cl)c(F)c1", "note": "[Compound 135]", "% Inhibition @ 1 uM": "+ + (compound exhibited 25-50% inhibition of calcium ion influx induced by capsaicin stimulation)"},
      {"smiles": "O=C(Nc1ccc(F)c(F)c1)c1ccc(-c2ncccc2Cl)cn1", "note": "[Compound 346]", "% Inhibition @ 1 uM": "+ + + + (“+ + + +” compound exhibited 75% or greater inhibition of calcium ion influx induced by capsaicin stimulation.)"},
      {"smiles": "COc1cc(NC(=O)c2ccc(-c3ncccc3Cl)cn2)cc(C(F)(F)F)c1", "note": "[Compound 311]", "% Inhibition @ 1 uM": "+ (“+” compound exhibited 0-25% inhibition of calcium ion influx induced by capsaicin stimulation.)"},
      {"smiles": "CCN(CC)c1ccc(NC(=O)c2ccc(-c3ncccc3Cl)cc2)cc1", "note": "[Compound 44]", "% Inhibition @ 1 uM": "+ + + + (compound exhibited 75% or greater inhibition of calcium ion influx induced by capsaicin stimulation)"},
      {"smiles": "CCN(CC)CCOC(=O)c1ccc(NC(=O)c2ccc(-c3ncccc3Cl)cc2)cc1", "note": "[Compound 265]", "% Inhibition @ 1 uM": "+ (“+” compound exhibited 0-25% inhibition of calcium ion influx induced by capsaicin stimulation.)"},
      {"smiles": "O=C(Nc1cccnc1Cl)c1ccc(-c2ncccc2Cl)cc1F", "note": "[Compound 101]", "% Inhibition @ 1 uM": "+ (compound exhibited 0-25% inhibition of calcium ion influx induced by capsaicin stimulation)"},
      {"smiles": "Cc1ccnc(NC(=O)c2ccc(-c3ncccc3Cl)cn2)c1", "note": "[Compound 318]", "% Inhibition @ 1 uM": "+ (“+” compound exhibited 0-25% inhibition of calcium ion influx induced by capsaicin stimulation.)"}
    ]},
    {"test_system": "VR1 receptor", "assay": "High throughput calcium imaging assay (Fura2, Flex Station) of VR1 antagonists, pH 5.1 stimulus", "format": "cell-based", "conditions": "1 uM compound; inhibition of calcium ion influx induced by capsaicin stimulation; 1 µM", "values": [
      {"smiles": "O=C(Nc1ccc2ccccc2c1)c1ccc(-c2ncccc2Cl)cc1", "note": "[Compound 54]", "% Inhibition @ 1 uM": "+ (compound exhibited 0-25% inhibition of calcium ion influx induced by capsaicin stimulation)"}
    ]}
  ]
}
